From ChEMBL document CHEMBL4680286, “Design, synthesis and antibacterial evaluation of novel oxazolidinone derivatives nitrogen-containing fused heterocyclic moiety” (2021)
Values after ≈ are worked out from the molar mass of the structure shown.

Legend:
Format in all cases: functional
[1] = test system: Enterococcus faecalis; experiment: Antibacterial activity against linezolid-resistant Enterococcus faecalis
[2] = test system: Staphylococcus aureus; experiment: Antibacterial activity against methicillin-sensitive Staphylococcus aureus
[3] = test system: Staphylococcus aureus; experiment: Antibacterial activity against methicillin-resistant Staphylococcus aureus
[4] = test system: Enterococcus faecium; experiment: Antibacterial activity against vancomycin-resistant Enterococcus faecium
[5] = test system: Staphylococcus aureus; experiment: Antibacterial activity against Staphylococcus aureus ATCC 29213
[6] = test system: Enterococcus faecalis; experiment: Antibacterial activity against hospital acquired linezolid-resistant Enterococcus faecalis clinical isolates
[7] = test system: Staphylococcus aureus; experiment: Antibacterial activity against hospital acquired methicillin-resistant Staphylococcus aureus clinical isolates
[8] = test system: Staphylococcus aureus; experiment: Antibacterial activity against hospital acquired methicillin-sensitive Staphylococcus aureus clinical isolates
[9] = test system: Enterococcus faecium; experiment: Antibacterial activity against hospital acquired vancomycin-resistant Enterococcus faecium clinical isolates
[10] = test system: Enterococcus; experiment: Antibacterial activity against Enterococcus
[11] = test system: Staphylococcus; experiment: Antibacterial activity against Staphylococcus
[12] = test system: Streptococcus; experiment: Antibacterial activity against Streptococcus

Compound | MIC [1] | MIC [2] | MIC [3] | MIC [4] | MIC [5] | MIC [6] | MIC [7] | MIC [8] | MIC [9] | MIC [10] | MIC [11] | MIC [12]
CC(=O)NC[C@H]1CN(c2ccc(-c3ccc(-c4cc5n(n4)CCNC5)cc3)c(F)c2)C(=O)O1 | 2 µg/mL (≈ 4.45 µM) | 2 µg/mL (≈ 4.45 µM) | 2 µg/mL (≈ 4.45 µM) | 0.5 µg/mL (≈ 1.11 µM) | 2 µg/mL (≈ 4.45 µM) |  |  |  |  |  |  | 
CC(=O)NC[C@H]1CN(c2ccc(-c3ccc(-c4nc5n(n4)CCN(C)C5)cc3)c(F)c2)C(=O)O1 | 2 µg/mL (≈ 4.31 µM) | 1 µg/mL (≈ 2.15 µM) | 1 µg/mL (≈ 2.15 µM) | 1 µg/mL (≈ 2.15 µM) | 1 µg/mL (≈ 2.15 µM) |  |  |  |  |  |  | 
CC(=O)NC[C@H]1CN(c2ccc(-c3ccc(-c4nc5cnccn5n4)cc3)c(F)c2)C(=O)O1 | 0.5 µg/mL (≈ 1.12 µM) | 0.5 µg/mL (≈ 1.12 µM) | 0.5 µg/mL (≈ 1.12 µM) | 0.5 µg/mL (≈ 1.12 µM) | 0.5 µg/mL (≈ 1.12 µM) | 0.5 µg/mL (≈ 1.12 µM) | 0.5 µg/mL (≈ 1.12 µM) | 0.5 µg/mL (≈ 1.12 µM) | 0.5 µg/mL (≈ 1.12 µM) |  |  | 
CC(=O)NC[C@H]1CN(c2ccc(-c3ccc(-c4nnc5cnccn45)cc3)c(F)c2)C(=O)O1 | 1 µg/mL (≈ 2.24 µM) | 1 µg/mL (≈ 2.24 µM) | 1 µg/mL (≈ 2.24 µM) | 1 µg/mL (≈ 2.24 µM) | 1 µg/mL (≈ 2.24 µM) |  |  |  |  |  |  | 
CC(=O)NC[C@H]1CN(c2ccc(-c3ccc(-c4nc5ccccn5n4)cc3)c(F)c2)C(=O)O1 | 1 µg/mL (≈ 2.24 µM) | 2 µg/mL (≈ 4.49 µM) | 1 µg/mL (≈ 2.24 µM) | 0.5 µg/mL (≈ 1.12 µM) | 2 µg/mL (≈ 4.49 µM) |  |  |  |  |  |  | 
CC(=O)NC[C@H]1CN(c2ccc(-c3ccc(-c4nc5n(n4)CCNC5)cc3)c(F)c2)C(=O)O1 | 1 µg/mL (≈ 2.22 µM) | 1 µg/mL (≈ 2.22 µM) | 2 µg/mL (≈ 4.44 µM) | 1 µg/mL (≈ 2.22 µM) | 2 µg/mL (≈ 4.44 µM) |  |  |  |  |  |  | 
CC(=O)NC[C@H]1CN(c2ccc(-c3ccc(-c4nnc5ccccn45)cc3)c(F)c2)C(=O)O1 | 1 µg/mL (≈ 2.24 µM) | 1 µg/mL (≈ 2.24 µM) | 2 µg/mL (≈ 4.49 µM) | 2 µg/mL (≈ 4.49 µM) | 2 µg/mL (≈ 4.49 µM) |  |  |  |  |  |  | 
CC(=O)NC[C@H]1CN(c2ccc(-c3ccc(-c4cc5n(n4)CCN(C)C5)cc3)c(F)c2)C(=O)O1 | 1 µg/mL (≈ 2.16 µM) | 1 µg/mL (≈ 2.16 µM) | 1 µg/mL (≈ 2.16 µM) | 0.5 µg/mL (≈ 1.08 µM) | 1 µg/mL (≈ 2.16 µM) |  |  |  |  |  |  | 
CC(=O)NC[C@H]1CN(c2ccc(N3CCOCC3)c(F)c2)C(=O)O1 [LINEZOLID] | > 16 µg/mL | 1 µg/mL (≈ 2.96 µM) | 1 µg/mL (≈ 2.96 µM) | 2 µg/mL (≈ 5.93 µM) | 1 µg/mL (≈ 2.96 µM) | > 16 µg/mL | 1 µg/mL (≈ 2.96 µM) | 1 µg/mL (≈ 2.96 µM) | 1 µg/mL (≈ 2.96 µM) |  |  | 
CC(=O)NC[C@H]1CN(c2ccc(-c3ccc(CNCc4cnn[nH]4)cc3)c(F)c2)C(=O)O1 [RADEZOLID] | 0.5 µg/mL (≈ 1.14 µM) | 0.5 µg/mL (≈ 1.14 µM) | 0.5 µg/mL (≈ 1.14 µM) | 0.5 µg/mL (≈ 1.14 µM) | 0.5 µg/mL (≈ 1.14 µM) |  |  |  |  | 0.125 µg/mL (≈ 0.285 µM) | 0.125 µg/mL (≈ 0.285 µM) | 0.125 µg/mL (≈ 0.285 µM)
